Data: PubChem BioAssay (NCI)
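These data come from cells grown in 96-well plates and exposed to compound for 48 hours at five concentrations. Abbreviation: GI50, concentration required for 50% inhibition of growth. TGI: total growth inhibition.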

Key:
Assay in all cases: NCI tumour cell line growth inhibition, 48 h
HOP-18 NSCLC = system: HOP-18 NSCLC
DMS 273 small cell lung = system: DMS 273 small cell lung
OVCAR-5 ovarian = system: OVCAR-5 ovarian
M19-MEL melanoma = system: M19-MEL melanoma
HL-60(TB) leukemia = system: HL-60(TB) leukemia
XF 498 CNS = system: XF 498 CNS
KM20L2 colon = system: KM20L2 colon
LXFL 529 NSCLC = system: LXFL 529 NSCLC
DMS 114 small cell lung = system: DMS 114 small cell lung
DLD-1 colon = system: DLD-1 colon
MDA-MB-435 = system: MDA-MB-435
T-47D breast = system: T-47D breast
786-0 renal = system: 786-0 renal
MCF7 breast = system: MCF7 breast
MDA-N = system: MDA-N

Row | Compound | TGI (OVCAR-5 ovarian) [µM] | TGI (HL-60(TB) leukemia) [µM] | TGI (MDA-MB-435) [µM] | TGI (T-47D breast) [µM] | TGI (786-0 renal) [µM] | TGI (MCF7 breast) [µM] | TGI (MDA-N) [µM] | also measured
1 | CCCCCCCCCC/C=C/C=O | > 100 | > 100 |  |  |  |  |  | TGI (HOP-18 NSCLC): > 100 µM; TGI (DMS 273 small cell lung): > 100 µM; TGI (M19-MEL melanoma): > 100 µM; TGI (XF 498 CNS): > 100 µM; TGI (KM20L2 colon): > 100 µM; TGI (LXFL 529 NSCLC): > 100 µM; TGI (DMS 114 small cell lung): > 100 µM; TGI (DLD-1 colon): > 100 µM
2 | CN1CCN(c2ccc3[nH]c(C4=C(O)C(=O)[C@@H]5C(=C4O)N=C(CO)N5C)nc3n2)CC1 | > 100 | > 100 | > 100 | > 100 | > 100 |  |  | 
3 | Cc1cc(C)c(NC(=O)/C=C/c2ccccc2)c(C)c1 | > 100 | > 100 | > 100 |  |  | > 100 |  | 
4 | C=CC(=O)NCNC(=O)C=C | > 100 | > 100 |  |  | > 100 |  |  | TGI (HOP-18 NSCLC): > 100 µM; TGI (DMS 273 small cell lung): > 100 µM; TGI (M19-MEL melanoma): > 100 µM; TGI (XF 498 CNS): > 100 µM; TGI (KM20L2 colon): > 100 µM; TGI (LXFL 529 NSCLC): > 100 µM; TGI (DMS 114 small cell lung): > 100 µM; TGI (DLD-1 colon): > 100 µM
5 | O=C1/C(=C/c2ccc(Cl)cc2)N=C(c2ccccc2)N1/N=C/c1ccccc1O | 34.8 | > 100 | > 100 | 30.7 |  | > 100 | > 100 | 
6 | CCP(=O)(CC)C(Cl)(Cl)C(O)C(Cl)(Cl)Cl (configuration not stated) | > 100 | > 100 |  | > 100 |  | > 100 | > 100 | 
7 | C#C[C@]1(O)[C@@H](CO)O[C@@H](n2ccc(N)nc2=O)[C@@H]1O |  | > 100 | 0.219 |  |  | > 100 | 0.175 | 
8 | NCCCn1c2c(c3ccc([N+](=O)[O-])cc3c1=O)C(=O)c1cc(F)ccc1-2 | 0.71 | 0.166 | 0.923 |  |  |  |  | GI50 (OVCAR-5 ovarian): 0.122 µM; GI50 (MDA-MB-435): 0.0762 µM; GI50 (HL-60(TB) leukemia): < 0.016 µM
9 | COc1cc(/C=C/C(=O)c2ccc(F)cc2)ccc1OCCCCCOc1cc2c(cc1OC)C(=O)N1CCCC1C=N2 (configuration not stated) |  |  | 0.145 | 1.19 |  | 0.0395 |  | GI50 (MDA-MB-435): 0.0339 µM; GI50 (HL-60(TB) leukemia): 0.0405 µM; GI50 (T-47D breast): 0.0231 µM; GI50 (MCF7 breast): < 0.01 µM
10 | NC(Cc1ccccc1)c1nn[nH]n1 (configuration not stated) | > 100 | > 100 | > 100 | > 100 | > 100 | > 100 | > 100 | 
11 | CC(C)OC(=O)NNc1cccc(Cl)c1 | > 100 | > 100 | > 100 | > 100 | > 100 | > 100 | > 100 | 
